Data reported in ChEMBL document CHEMBL1141924 (Bioorg Med Chem Lett, 2005).

Molecular target: Carbonic anhydrase V (Homo sapiens, UniProt Q9Y2D0+P35218)

**Q.** `CC1(C)O[C@@H]2[C@@H](CO[C@@]3(COS(N)(=O)=O)OC(C)(C)O[C@@H]23)O1` [TOPIRAMATE] was tested. Which Ki did it give?
**A.** The Ki was 25.4 nM.
